Mutagenic call data for ten compounds are collected here from PubChem BioAssay AID1259407 (Chemical Carcinogenesis Research Information System (CCRIS), 2018).

This data set relates to CCRIS mutagenicity, Ames/micronucleus/aberration tests. In words: CCRIS mutagenicity studies.
Setting [1] is: Test System: AMES SALMONELLA TYPHIMURIUM, Strain/Indicator: TA98, Metabolic Activation: NONE, Method: STANDARD PLATE.
[2] abbreviates: Test System: AMES SALMONELLA TYPHIMURIUM, Strain/Indicator: TA98, Metabolic Activation: RAT, LIVER, S-9, PHENOBARBITAL, Method: STANDARD PLATE.
Where [3] appears, read: Test System: AMES SALMONELLA TYPHIMURIUM, Strain/Indicator: TA100, Metabolic Activation: NONE, Method: STANDARD PLATE.
Where [4] appears, read: Test System: AMES SALMONELLA TYPHIMURIUM, Strain/Indicator: TA100, Metabolic Activation: RAT, LIVER, S-9, AROCLOR 1254, Method: STANDARD PLATE.

Structures are written as SMILES. Calls of active or inactive are those of the source. The rule behind the calls is not given here.

In the case of `C[C@@H](O)[C@H](N)C(=O)O`, for the setting “Test System: AMES SALMONELLA TYPHIMURIUM, Strain/Indicator: TA98, Metabolic Activation: RAT LIVER S-9, CHLOROPHENE, Method: STANDARD PLATE (COMPOUND HEATED AT 250 DEGREES CELSIUS FOR 20 MIN)”, the mutagenic call was “active; positive”.

On to `Cc1cccc2cc3c4c(cccc4c12)-c1ccccc1-3`, for which the mutagenic call (Test System: AMES SALMONELLA TYPHIMURIUM, Strain/Indicator: TA100, Metabolic Activation: RAT, LIVER, S-9, AROCLOR 1254) was “active; positive”.

Consider `O=c1ccc2cc3ccoc3cc2o1`, for which the mutagenic call is, setting by setting: under setting [1], “inactive; negative”; (Test System: AMES SALMONELLA TYPHIMURIUM, Strain/Indicator: TA98, Metabolic Activation: RAT, LIVER, S-9, AROCLOR 1254, Method: STANDARD PLATE) “inactive; negative”; under setting [2], “inactive; negative”; under setting [3], “inactive; negative”; under setting [4], “inactive; negative”.

As for `CC1(C2CO2)CO1` (stereo not given), the mutagenic call runs as follows: under setting [1], “active; positive”; under setting [3], “active; positive”.

As to `CCN[C@H](C)C[C@@H](C)NCC.[Cl-].[Cl-].[Pt+2]`, the mutagenic call was “inactive; negative” (Test System: AMES SALMONELLA TYPHIMURIUM, Strain/Indicator: TA97A, Metabolic Activation: NONE, Method: STANDARD PLATE) and “inactive; negative” under setting [3].

Take `O=[N+]([O-])c1cc2[nH]c3ccc4ccccc4c3c2c2cc(O)ccc12`: the mutagenic call runs as follows: under setting [1], “inactive; negative”; (Test System: AMES SALMONELLA TYPHIMURIUM, Strain/Indicator: TA98, Metabolic Activation: RAT, LIVER, S-9, 3-METHYLCHOLANTHRENE, Method: STANDARD PLATE) “active; positive”; under setting [3], “active; positive”; (Test System: AMES SALMONELLA TYPHIMURIUM, Strain/Indicator: TA100, Metabolic Activation: RAT, LIVER, S-9, 3-METHYLCHOLANTHRENE, Method: STANDARD PLATE) “active; positive”.

On to `Cc1ccc(N)c(C)c1`, for which the mutagenic call (End Point: IN VITRO CHROMOSOMAL ABERRATIONS, Test System: CHL CELLS, Metabolic Activation: RAT, LIVER, S-9, SODIUM PHENOBARBITAL AND 5,6-BENZOFLAVONE) is “active; positive (structural and ploidy changes)”; the mutagenic call (Test System: AMES SALMONELLA TYPHIMURIUM, Strain/Indicator: TA97, Metabolic Activation: HAMSTER, LIVER, S-9, AROCLOR 1254 (10%), Method: PREINCUBATION) was “active; positive”; the mutagenic call (Test System: AMES SALMONELLA TYPHIMURIUM, Strain/Indicator: TA97, Metabolic Activation: NONE, Method: PREINCUBATION) is “inactive; negative”; the mutagenic call (Test System: AMES SALMONELLA TYPHIMURIUM, Strain/Indicator: TA97, Metabolic Activation: RAT, LIVER, S-9, AROCLOR 1254 (10%), Method: PREINCUBATION) was “inactive; negative”; the mutagenic call (Test System: AMES SALMONELLA TYPHIMURIUM, Strain/Indicator: TA98, Metabolic Activation: HAMSTER, LIVER, S-9, AROCLOR 1254 (10%), Method: PREINCUBATION) was “active; positive”; the mutagenic call (Test System: AMES SALMONELLA TYPHIMURIUM, Strain/Indicator: TA98, Metabolic Activation: NONE, Method: PREINCUBATION) is “inactive; negative”. In addition, the mutagenic call was “active; positive” (Test System: AMES SALMONELLA TYPHIMURIUM, Strain/Indicator: TA98, Metabolic Activation: RAT, LIVER, S-9, AROCLOR 1254 (10%), Method: PREINCUBATION); “inactive; negative” (Test System: AMES SALMONELLA TYPHIMURIUM, Strain/Indicator: TA98, Metabolic Activation: S-9, Method: PREINCUBATION); “active; positive” (Test System: AMES SALMONELLA TYPHIMURIUM, Strain/Indicator: TA100, Metabolic Activation: HAMSTER, LIVER, S-9, AROCLOR 1254 (10%), Method: PREINCUBATION); “active; positive” (Test System: AMES SALMONELLA TYPHIMURIUM, Strain/Indicator: TA100, Metabolic Activation: MOUSE, LIVER, S-9, AROCLOR 1254, Method: STANDARD PLATE); “inactive; negative” (Test System: AMES SALMONELLA TYPHIMURIUM, Strain/Indicator: TA100, Metabolic Activation: NONE, Method: PREINCUBATION); “active; positive” (Test System: AMES SALMONELLA TYPHIMURIUM, Strain/Indicator: TA100, Metabolic Activation: RAT, LIVER, S-9, AROCLOR 1254 (10%), Method: PREINCUBATION). Also, the mutagenic call under setting [4] is “active; positive”; the mutagenic call (Test System: AMES SALMONELLA TYPHIMURIUM, Strain/Indicator: TA100, Metabolic Activation: S-9, Method: PREINCUBATION) was “active; positive”; the mutagenic call (Test System: AMES SALMONELLA TYPHIMURIUM, Strain/Indicator: TA1535, Metabolic Activation: HAMSTER, LIVER, S-9, AROCLOR 1254 (10%), Method: PREINCUBATION) was “inactive; negative”; the mutagenic call (Test System: AMES SALMONELLA TYPHIMURIUM, Strain/Indicator: TA1535, Metabolic Activation: NONE, Method: PREINCUBATION) was “inactive; negative”; the mutagenic call (Test System: AMES SALMONELLA TYPHIMURIUM, Strain/Indicator: TA1535, Metabolic Activation: RAT, LIVER, S-9, AROCLOR 1254 (10%), Method: PREINCUBATION) was “inactive; negative”; the mutagenic call (Test System: AMES SALMONELLA TYPHIMURIUM, Strain/Indicator: TA1537, Metabolic Activation: HAMSTER, LIVER, S-9, AROCLOR 1254 (10%), Method: PREINCUBATION) is “inactive; negative”. Besides, the mutagenic call is, setting by setting: (Test System: AMES SALMONELLA TYPHIMURIUM, Strain/Indicator: TA1537, Metabolic Activation: RAT, LIVER, S-9, AROCLOR 1254 (10%), Method: PREINCUBATION) “inactive; negative”; (Test System: UDS RODENT HEPATOCYTES, Strain/Indicator: THY INCORP (NON-S-PHASE), Metabolic Activation: NONE, Method: AUTORADIOGRAPHY) “active; positive”.

As for `CN(C)CCn1cc[n+](C)c1/C=N/O`, the mutagenic call is, setting by setting: (Test System: AMES SALMONELLA TYPHIMURIUM, Strain/Indicator: TA97, Metabolic Activation: NONE, Method: STANDARD PLATE) “inactive; negative”; (Test System: AMES SALMONELLA TYPHIMURIUM, Strain/Indicator: TA97, Metabolic Activation: S-9, Method: STANDARD PLATE) “inactive; negative”; under setting [3], “inactive; negative”; (Test System: AMES SALMONELLA TYPHIMURIUM, Strain/Indicator: TA100, Metabolic Activation: S-9, Method: STANDARD PLATE) “inactive; negative”; (Test System: AMES SALMONELLA TYPHIMURIUM, Strain/Indicator: TA104, Metabolic Activation: NONE, Method: STANDARD PLATE) “inactive; negative”; (Test System: AMES SALMONELLA TYPHIMURIUM, Strain/Indicator: TA104, Metabolic Activation: S-9, Method: STANDARD PLATE) “inactive; negative”. Besides, the mutagenic call (Test System: AMES SALMONELLA TYPHIMURIUM, Strain/Indicator: TA1537, Metabolic Activation: NONE, Method: STANDARD PLATE) was “inactive; negative”; the mutagenic call (Test System: AMES SALMONELLA TYPHIMURIUM, Strain/Indicator: TA1537, Metabolic Activation: S-9, Method: STANDARD PLATE) is “inactive; negative”; the mutagenic call (Test System: AMES SALMONELLA TYPHIMURIUM, Strain/Indicator: TA1538, Metabolic Activation: NONE, Method: STANDARD PLATE) is “inactive; negative”; the mutagenic call (Test System: AMES SALMONELLA TYPHIMURIUM, Strain/Indicator: TA1538, Metabolic Activation: S-9, Method: STANDARD PLATE) was “inactive; negative”.

Regarding `CNC(=O)ONC(C)=O`, the mutagenic call runs as follows: under setting [1], “active; positive”; (Test System: AMES SALMONELLA TYPHIMURIUM, Strain/Indicator: TA98, Metabolic Activation: RAT, LIVER, S-9, Method: STANDARD PLATE) “active; positive”; under setting [3], “active; positive”.

Regarding `COc1ccc(O)c2c(=O)c3c(OC)cc4c(c3oc12)C1CCOC1O4` (stereo not given), the mutagenic call runs as follows: under setting [2], “inactive; negative”; (Test System: AMES SALMONELLA TYPHIMURIUM, Strain/Indicator: TA100, Metabolic Activation: RAT, LIVER, S-9, PHENOBARBITAL, Method: STANDARD PLATE) “inactive; negative”.
